Reference: paper PMC8329197, “Compounds targeting OSBPL7 increase ABCA1-dependent cholesterol efflux preserving kidney function in two models of kidney disease” (Nature Communications, 2021)
Where “and” joins values, the source holds several entries; their conditions need not be identical. Identical values can stand only once.

Experiments:
[1] = test system: Adriamycin (ADR)-induced nephropathy in Balb/c mice; experiment: Adriamycin-induced nephropathy, main study: albumin/creatinine ratio and body weight
[2] = test system: Adriamycin (ADR)-induced nephropathy in Balb/c mice; experiment: ADR nephropathy: liver total cholesterol, cholesterol esters, triglycerides; assay type: in vivo, mouse
[3] = test system: Adriamycin (ADR)-induced nephropathy in Balb/c mice; experiment: ADR nephropathy: serum cholesterol and triglycerides; assay type: in vivo, mouse
[4] = test system: Adriamycin (ADR)-induced nephropathy in Balb/c mice; experiment: ADR nephropathy: blood urea nitrogen (BUN) and serum creatinine; assay type: in vivo, mouse; details: 28 days treatment
Source text: Supplement 41467_2021_24890_MOESM5_ESM.xlsx, sheet "Supplementary Table 4" | column: ADR+ Cpd A; ADR+ Cpd G; ADR+ Cpd C

[5] = test system: Adriamycin (ADR)-induced nephropathy in Balb/c mice; experiment: ADR nephropathy: WBC, hemoglobin, hematocrit, ALT, AST; assay type: in vivo, mouse; details: ADR-induced nephropathy
[6] = test system: Adriamycin (ADR)-induced nephropathy in Balb/c mice; experiment: ADR nephropathy: kidney cortex lipids (cholesterol ester, total cholesterol, triglycerides, Oil-red O); assay type: in vivo, mouse
Protocol: OCT embedded kidney cortex samples were cryosectioned at 4 μm thickness and stained with Oil-Red O-isopropanol solution (Electron Microscopy Science, PA) diluted 6:4 in water, and then counterstained with Hematoxylin Harris Hg Free (VWR, PA). Sections were then evaluated using a light microscope (Olympus BX 41, Tokyo, Japan).
Snap frozen kidney cortex samples were homogenized in 2 mM potassium phosphate buffer, pH 7, (10 µl buffer/mg tissue) using a glass douncer on ice. 100 μl of the homogenate were mixed thoroughly with 1 ml of hexane:isopropanol (3:2;v:v) per volume of tissue homogenate. The aqueous (pellet) and organic (supernatant) phases were separated by centrifugation at 12,000 × g for 5 min. Pellets (aqueous phase) were dried, reconstituted in 8 M urea, 0.1% SDS, 0.1 M NaOH, and total proteins were quantified by the BCA method (Thermofisher). The organic phase was dried by exposure to nitrogen. Lipids were then reconstituted in 100 µl isopropanol:NP-40 (9:1;v:v). Triglyceride content was assayed using a colorimetric kit according to the manufacturer’s instructions (Cayman Chemical USA). Total cholesterol and CE content were assayed using an enzymatic fluorometric method. For total cholesterol measurement, extracts were diluted 1:100 in assay buffer (100 mM potassium phosphate, 50 mM NaCl, 5 mM cholic acid, 0.1% Triton […], pH 7.4) containing cholesterol oxidase (1 U/ml), cholesterol esterase (1 U/ml), horseradish peroxidase (1 U/ml), and Amplex Red (75 µM). The reactions were incubated at 37 °C for 30 min in a black opaque 96-well plate (Greiner) and fluorescence was measured in a microplate reader (Spectramax i3X, Molecular Devices) at 530 nm excitation and 580 emission.
For CE determination, 150 µl of the assay buffer described above, supplemented with bovine liver catalase (45 U/ml) and cholesterol oxidase (1 U/ml), was added to 25 μl of sample and incubated overnight at 37 °C to deplete free cholesterol leaving only cholesterol esters. Then, 75 µl of cholesterol ester detection reagent (1 U/ml cholesterol oxidase, 4 U/ml cholesterol esterase, 24 U/ml horseradish peroxidase, 300 µM Amplex Red) was added. The reaction was incubated at 37 °C for 30 min and the fluorescence signal was measured as described above. Internal standards included samples containing 1 mM of cholesterol and 5 μM of cholesterol oleate in order to verify the completeness of the enzymatic decomposition of free cholesterol as well as assay sensitivity and specificity.

[7] = ADR-injected mice, 28-day treatment, 25th quartile
[8] = ADR-injected mice, 28-day treatment, 75th quartile
[9] = ADR-injected mice, 28-day treatment, group maximum
[10] = ADR-injected mice, 28-day treatment, group median
[11] = ADR-injected mice, 28-day treatment, group minimum
[12] = ADR-injected mice, 28-day treatment, individual mouse values
[13] = 28 days treatment, 25th quartile
[14] = 28 days treatment, 75th quartile
[15] = 28 days treatment, group maximum
[16] = 28 days treatment, group median
[17] = 28 days treatment, group minimum
[18] = 28 days treatment, individual mouse values

Hepatic triglyceride content vs. vehicle-treated controls ([2]; ADR-challenged, 28 days): increased hepatic triglyceride content | Cholesterol (mg/dL), Median(IQR) ([3]; serum, after ADR challenge): 112(81-141) mg/dL | Cholesterol (mg/dL), Range ([3]; serum, after ADR challenge): 60 to 223 mg/dL | Cholesterol, % of the group> 112 mg/dL ([3]; serum, after ADR challenge): 30% | Triglycerides (mg/dL), Median(IQR) ([3]; serum, after ADR challenge): 62(56-102) mg/dL | Triglycerides (mg/dL), Range ([3]; serum, after ADR challenge): 44 to 182 mg/dL | Animals with higher triglyceride content in kidney cortexes ([6]; ADR, Cpd C 10 mg/Kg): about 30%
Structure (SMILES): Cc1oc(-c2cccc(C(F)(F)F)c2)nc1Cn1c(C)cc2cc(C(O)(C(F)(F)F)C(F)(F)F)ccc21 [Cpd C, reference compound]
Effect on weight loss ([1]; 28 days after ADR): no significant effect to prevent weight loss | ACR, median ([1]; 28 days after ADR, Cpd A 30, Cpd G 100, Cpd C 10 mg/Kg, group median): 6.591 mg albumin/mg creatinine | Reduction in ACR ([1]; Cpd C 10 mg/Kg, 28 days): more variable reduction in ACR | Weight (d28) ([1]; animal weight when therapy finished, single animals): 19 and 13 and 20 and 16 and 22 and 17 and 18 | Weight Change (as % of weight at day 0), Median ([1]; day 28 after ADR, Cpd A 30, Cpd G 100, Cpd C 10 mg/Kg): -5% | Weight Change (as % of weight at day 0) ([1]; day 28 after ADR, Cpd A 30, Cpd G 100, Cpd C 10 mg/Kg, single animals): 5.3% and 5.6% and -15.8% and 4.8% and -15% and 0% and -10% and -5% and -27.8% | ACR values (mg Albumin / mg Creatinine) ([1]; spot urine 28 days after ADR, oral daily Cpd A 30, Cpd G 100, Cpd C 10 mg/Kg, single animals): 97.01 mg Albumin / mg Creatinine and 0.196 mg Albumin / mg Creatinine and 5.6 mg Albumin / mg Creatinine and 6.591 mg Albumin / mg Creatinine and 5.609 mg Albumin / mg Creatinine and 28.989 mg Albumin / mg Creatinine and 87.25 mg Albumin / mg Creatinine and 19.88 mg Albumin / mg Creatinine and 5.463 mg Albumin / mg Creatinine | LIVER CHOLESTEROL ESTERS ([2]; ADR model, individual animals): 3.92 nmol CE/ mg protein and 1.48 nmol CE/ mg protein and 3.2 nmol CE/ mg protein and 3.1 nmol CE/ mg protein | LIVER TOTAL CHOLESTEROL ([2]; ADR model, individual animals): 132 nmol Cholesterol/ mg protein and 89 nmol Cholesterol/ mg protein and 311 nmol Cholesterol/ mg protein and 91 nmol Cholesterol/ mg protein | LIVER TRIGLICERIDES ([2]; ADR model, individual animals): 48.5 nmol Triglycerides/ mg protein and 45 nmol Triglycerides/ mg protein and 67 nmol Triglycerides/ mg protein and 56 nmol Triglycerides/ mg protein | SERUM CHOLESTEROL ([3]; ADR model, individual animals): 104 and 64 and 223 and 112 and 98 and 124 and 145 and 136 and 60 | SERUM TRIGLYCERIDES ([3]; ADR model, individual animals): 57 and 182 and 112 and 55 and 91 and 62 and 66 and 44 | Serum cholesterol, QR(25) [3, 7]: 98 mg/dL | Serum triglycerides, QR(25) [3, 7]: 57 mg/dL | Serum cholesterol, QR(75) [3, 8]: 136 mg/dL | Serum triglycerides, QR(75) [3, 8]: 91 mg/dL | Serum cholesterol, Max [3, 9]: 223 mg/dL | Serum triglycerides, Max [3, 9]: 182 mg/dL | Serum cholesterol, Median [3, 10]: 112 mg/dL | Serum triglycerides, median [3, 10]: 62 mg/dL | Serum cholesterol, Min [3, 11]: 60 mg/dL | Serum triglycerides, Min [3, 11]: 44 mg/dL | SERUM CHOLESTEROL [3, 12]: 64 mg/dL and 223 mg/dL and 112 mg/dL and 98 mg/dL and 124 mg/dL and 145 mg/dL and 136 mg/dL and 60 mg/dL and 104 mg/dL | SERUM TRIGLYCERIDES [3, 12]: 57 mg/dL and 62 mg/dL and 66 mg/dL and 44 mg/dL and 182 mg/dL and 112 mg/dL and 55 mg/dL and 91 mg/dL | BUN, QR(25) ([4]; 25th quartile): 16 mg/dL | sCre, QR(25) ([4]; 25th quartile): 0.09 mg/dL | BUN, QR(75) ([4]; 75th quartile): 20 mg/dL | sCre, QR(75) ([4]; 75th quartile): 0.16 mg/dL | BUN, Max ([4]; group maximum): 51 mg/dL | sCre, Max ([4]; group maximum): 0.47 mg/dL | BUN, Median ([4]; group median): 17 mg/dL | sCre, Median ([4]; group median): 0.12 mg/dL | BUN, Min ([4]; group minimum): 13 mg/dL | sCre, Min ([4]; group minimum): 0.09 mg/dL | Blood Urea nitrogen (BUN) ([4]; individual mouse values): 13 mg/dL and 32 mg/dL and 18 mg/dL and 16 mg/dL and 20 mg/dL and 51 mg/dL and 17 mg/dL | Serum Creatinine sCre ([4]; individual mouse values): 0.16 mg/dL and 0.47 mg/dL and 0.12 mg/dL and 0.09 mg/dL and 0.29 mg/dL and 0.14 mg/dL | ALT, Median (IQR) [5]: 146 (71-682) U/L | ALT, Range [5]: 68-838 U/L | AST, Median (IQR) [5]: 165 (104-371) U/L | AST, Range [5]: 90-433 U/L | HTC, Median (IQR) [5]: 55 (45-64) % | HTC, Range [5]: 43-65% | Hgb, Median (IQR) [5]: 13.3 g/dL | Hgb, Range [5]: 11 to 15.9 g/dL | WBC, Median (IQR) [5]: 6.2 (5.5-7.9) x103cells/µL | WBC, Range [5]: 5.4-8.3 x103cells/µL | ALT, QR(25) [5, 13]: 76.25 U/L | AST, QR(25) [5, 13]: 131.25 U/L | HTC, QR(25) [5, 13]: 46% | Hgb, QR(25) [5, 13]: 12.5 g/dL | WBC, QR(25) [5, 13]: 6.4 x 10^3 cells/ul | ALT, QR(75) [5, 14]: 369.25 U/L | AST, QR(75) [5, 14]: 246.25 U/L | HTC, QR(75) [5, 14]: 64% | Hgb, QR(75) [5, 14]: 15.4 g/dL | WBC, QR(75) [5, 14]: 10.3 x 10^3 cells/ul | ALT, Max [5, 15]: 838 U/L | AST, Max [5, 15]: 433 U/L | HTC, Max [5, 15]: 65% | Hgb, Max [5, 15]: 15.9 g/dL | WBC, Max [5, 15]: 11.6 x 10^3 cells/ul | ALT, Median [5, 16]: 146 U/L | AST, Median [5, 16]: 164.5 U/L | HTC, Median [5, 16]: 55% | Hgb, Median [5, 16]: 13.3 g/dL | WBC, Median [5, 16]: 6.7 x 10^3 cells/ul | ALT, Min [5, 17]: 68 U/L | AST, Min [5, 17]: 90 U/L | HTC, Min [5, 17]: 43% | Hgb, Min [5, 17]: 11 g/dL | WBC, Min [5, 17]: 5.4 x 10^3 cells/ul | Alanine Aminotransferase (ALT) [5, 18]: 213 U/dL and 68 U/dL and 79 U/dL and 838 U/dL | Aspartate Aminotransferase (AST) [5, 18]: 184 U/dL and 90 U/dL and 145 U/dL and 433 U/dL | Hematocrit HTC [5, 18]: 64% and 65% and 55% and 46% and 43% and 44% | White Blood Cells WBC [5, 18]: 10.3 x 10^3 cells/ul and 6.7 x 10^3 cells/ul and 6.5 x 10^3 cells/ul and 5.9 x 10^3 cells/ul and 5.4 x 10^3 cells/ul and 8.3 x 10^3 cells/ul and 6.4 x 10^3 cells/ul and 11.6 x 10^3 cells/ul | KIDNEY CORTEX TOTAL CHOLESTEROL ([6]; ADR model, individual animals): 169.86 nmol Chol./mg protein and 129.15 nmol Chol./mg protein and 254.63 nmol Chol./mg protein and 268.95 nmol Chol./mg protein and 152.74 nmol Chol./mg protein and 180.44 nmol Chol./mg protein and 182.39 nmol Chol./mg protein and 272.02 nmol Chol./mg protein and 254.98 nmol Chol./mg protein | KIDNEY CORTEX TRIGLYCERIDES ([6]; ADR model, individual animals): 43.01 nmol Triglyceride /mg protein and 83.04 nmol Triglyceride /mg protein and 58.7 nmol Triglyceride /mg protein and 29.67 nmol Triglyceride /mg protein and 36.87 nmol Triglyceride /mg protein and 243.76 nmol Triglyceride /mg protein and 196.92 nmol Triglyceride /mg protein and 133.68 nmol Triglyceride /mg protein and 574.71 nmol Triglyceride /mg protein
